From PubChem BioAssay AID248 (DTP/NCI, 2004)
Several values for one entry are separate records, joined by “and”; a condition that tells them apart may be missing. Equal values may be shown once. Toxic doses and inconclusive results are not listed. Rule as the data show it: active = T/C of 150% or more; inactive = T/C below 125%.

Test system: L1210 leukemia ip in BDF1 mice, survival T/C
Assay: NCI In Vivo Anticancer Drug Screen. Data for tumor model L1210 Leukemia (intraperitoneal) in B6D2F1 (BDF1) mice
Conditions: endpoint: mean survival time, higher = longer survival
Summary of the method: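 Survival endpoint. Drug-treated group vs vehicle group, expressed as T divided by C. Tumor passaged by transplantation.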

[1] = dose: 100.0 mg/kg/injection, schedule: Q04DX002 (ip), vehicle: saline
[2] = dose: 200.0 mg/kg/injection, schedule: Q04DX002 (ip), vehicle: saline
[3] = dose: 400.0 mg/kg/injection, schedule: Q04DX002 (ip), vehicle: saline
[4] = dose: 100.0 mg/kg/injection, schedule: Q04DX003 (ip), vehicle: saline
[5] = dose: 100.0 mg/kg/injection, schedule: Q01DX001 (ip), vehicle: carboxymethylcellulose (CMC)
[6] = dose: 200.0 mg/kg/injection, schedule: Q01DX001 (ip), vehicle: carboxymethylcellulose (CMC)
[7] = dose: 100.0 mg/kg/injection, schedule: Q01DX009 (ip), vehicle: Klucel (hydroxypropylcellulose) (HPC)
[8] = dose: 100.0 mg/kg/injection, schedule: Q04DX003 (ip), vehicle: Klucel (hydroxypropylcellulose) (HPC)
[9] = dose: 200.0 mg/kg/injection, schedule: Q01DX009 (ip), vehicle: Klucel (hydroxypropylcellulose) (HPC)
[10] = dose: 200.0 mg/kg/injection, schedule: Q04DX003 (ip), vehicle: Klucel (hydroxypropylcellulose) (HPC)
[11] = dose: 400.0 mg/kg/injection, schedule: Q01DX009 (ip), vehicle: Klucel (hydroxypropylcellulose) (HPC)
[12] = dose: 400.0 mg/kg/injection, schedule: Q04DX003 (ip), vehicle: Klucel (hydroxypropylcellulose) (HPC)
[13] = dose: 100.0 mg/kg/injection, schedule: Q04DX003 (ip), vehicle: saline with Tween-80
[14] = dose: 200.0 mg/kg/injection, schedule: Q04DX003 (ip), vehicle: saline with Tween-80
[15] = dose: 400.0 mg/kg/injection, schedule: Q04DX003 (ip), vehicle: saline with Tween-80

Measured: T/C

CC(C)OC(=O)NN1CCCCCC1
inactive: dose: 100.0 mg/kg/injection, schedule: Q04DX002 (ip), vehicle: Klucel (hydroxypropylcellulose) (HPC) 92 % of control | dose: 200.0 mg/kg/injection, schedule: Q04DX002 (ip), vehicle: Klucel (hydroxypropylcellulose) (HPC) 105 % of control | dose: 400.0 mg/kg/injection, schedule: Q04DX002 (ip), vehicle: Klucel (hydroxypropylcellulose) (HPC) 96 % of control

CCCCOCCOCCOC(OCCOCCOCCCC)c1ccc2c(c1)OCO2
inactive: [1] 88 % of control | [2] 92 % of control | [3] 95 % of control

Cc1cc[n+](CCc2ccccc2)cc1
inactive: dose: 12.5 mg/kg/injection, schedule: Q01DX009 (ip), vehicle: carboxymethylcellulose (CMC) 97 % of control | dose: 25.0 mg/kg/injection, schedule: Q01DX009 (ip), vehicle: carboxymethylcellulose (CMC) 97 % of control | dose: 50.0 mg/kg/injection, schedule: Q01DX009 (ip), vehicle: carboxymethylcellulose (CMC) 105 % of control | dose: 50.0 mg/kg/injection, schedule: Q04DX003 (ip), vehicle: saline 100 % of control | dose: 75.0 mg/kg/injection, schedule: Q01DX001 (ip), vehicle: carboxymethylcellulose (CMC) 108 % of control | dose: 75.0 mg/kg/injection, schedule: Q01DX001 (ip), vehicle: other 104 % of control | [4] 92 % of control and 100 % of control | dose: 150.0 mg/kg/injection, schedule: Q01DX001 (ip), vehicle: carboxymethylcellulose (CMC) 115 % of control | dose: 150.0 mg/kg/injection, schedule: Q01DX001 (ip), vehicle: other 104 % of control | dose: 300.0 mg/kg/injection, schedule: Q01DX001 (ip), vehicle: other 105 % of control

CCCCCC(/C=N\Nc1nnc(N/N=C\C(=C\c2ccccc2)CCCCC)c2ccccc12)=C/c1ccccc1
inactive: dose: 50.0 mg/kg/injection, schedule: Q01DX001 (ip), vehicle: carboxymethylcellulose (CMC) 102 % of control | dose: 88.0 mg/kg/injection, schedule: Q01DX001 (ip), vehicle: carboxymethylcellulose (CMC) 98 % of control | [5] 108 % of control | dose: 133.0 mg/kg/injection, schedule: Q01DX001 (ip), vehicle: carboxymethylcellulose (CMC) 101 % of control | [6] 104 % of control and 114 % of control | dose: 300.0 mg/kg/injection, schedule: Q01DX001 (ip), vehicle: carboxymethylcellulose (CMC) 102 % of control and 104 % of control

CCCCNC(=O)c1cc(NC(=O)c2ccc(C(=O)Nc3cc(C(=O)NCCCC)cc(C4N=CCN4)c3)cc2)cc(C2=NCCN2)c1 (stereo not given)
inactive: dose: 5.0 mg/kg/injection, schedule: Q01DX015 (ip), vehicle: methylcellulose (MC) 86 % of control | dose: 20.0 mg/kg/injection, schedule: Q01DX015 (ip), vehicle: methylcellulose (MC) 86 % of control | dose: 40.0 mg/kg/injection, schedule: Q01DX015 (ip), vehicle: methylcellulose (MC) 91 % of control | dose: 62.0 mg/kg/injection, schedule: Q01DX015 (ip), vehicle: methylcellulose (MC) 100 % of control

CCCCCCCCCC1(C)OCC(COC(N)=O)O1 (stereo not given)
inactive: dose: 25.0 mg/kg/injection, schedule: Q01DX009 (ip), vehicle: Klucel (hydroxypropylcellulose) (HPC) 104 % of control | dose: 25.0 mg/kg/injection, schedule: Q04DX003 (ip), vehicle: Klucel (hydroxypropylcellulose) (HPC) 98 % of control | dose: 50.0 mg/kg/injection, schedule: Q01DX009 (ip), vehicle: Klucel (hydroxypropylcellulose) (HPC) 93 % of control | dose: 50.0 mg/kg/injection, schedule: Q04DX003 (ip), vehicle: Klucel (hydroxypropylcellulose) (HPC) 96 % of control | [7] 93 % of control | [8] 96 % of control | [9] 98 % of control | [10] 98 % of control | [11] 102 % of control | [12] 98 % of control

Cc1ccccc1-n1c(O)c(N=Nc2ccc(Br)cc2)c(=O)n(-c2ccccc2)c1=S
inactive: dose: 100.0 mg/kg/injection, schedule: Q01DX001 (ip), vehicle: Klucel (hydroxypropylcellulose) (HPC) 94 % of control | dose: 200.0 mg/kg/injection, schedule: Q01DX001 (ip), vehicle: Klucel (hydroxypropylcellulose) (HPC) 94 % of control | dose: 400.0 mg/kg/injection, schedule: Q01DX001 (ip), vehicle: Klucel (hydroxypropylcellulose) (HPC) 91 % of control

COc1ccc2c(c1)C(=O)CCN2
inactive: [7] 100 % of control | [8] 102 % of control | [9] 95 % of control | [10] 104 % of control | [12] 93 % of control

Cc1cnc2ccccc2c1
inactive: dose: 100.0 mg/kg/injection, schedule: Q01DX001 (ip), vehicle: saline 100 % of control | dose: 200.0 mg/kg/injection, schedule: Q01DX001 (ip), vehicle: saline 100 % of control

CN(C)/N=C/c1ccccn1
inactive: [4] 106 % of control | dose: 200.0 mg/kg/injection, schedule: Q04DX003 (ip), vehicle: saline 109 % of control

c1ccc(CCN(c2ccccc2)c2ccccc2)cc1
inactive: [5] 100 % of control | [6] 103 % of control | dose: 400.0 mg/kg/injection, schedule: Q01DX001 (ip), vehicle: carboxymethylcellulose (CMC) 103 % of control

CC/C(C)=N/NCCO
inactive: dose: 12.5 mg/kg/injection, schedule: Q01DX001 (ip), vehicle: saline 114 % of control | dose: 12.5 mg/kg/injection, schedule: Q01DX009 (ip), vehicle: saline 93 % of control | dose: 25.0 mg/kg/injection, schedule: Q01DX001 (ip), vehicle: saline 101 % of control | dose: 25.0 mg/kg/injection, schedule: Q01DX009 (ip), vehicle: saline 97 % of control | dose: 50.0 mg/kg/injection, schedule: Q01DX001 (ip), vehicle: saline 103 % of control and 104 % of control

CC(C)c1ccc(/C=N/NC(=O)c2ccncc2)cc1
inactive: dose: 100.0 mg/kg/injection, schedule: Q01DX009 (ip), vehicle: saline 100 % of control

COc1ccc(/C=N/CCl)cc1
inactive: [13] 110 % of control | [14] 92 % of control | [15] 96 % of control

CCCCCC(Br)C(Br)CC(Br)C(Br)CCCCCCCC(=O)O (stereo not given)
inactive: [7] 95 % of control | [8] 98 % of control | [13] 98 % of control | [9] 90 % of control | [14] 97 % of control | [11] 93 % of control | [12] 93 % of control | [15] 91 % of control

CC(=O)OCCn1c([N+](=O)[O-])cnc1/C=[N+](/[O-])CCO
inactive: [1] 111 % of control | [2] 100 % of control | [3] 100 % of control

CC(C)(C)NC(=O)/C=C\C(=O)O
inactive: dose: 100.0 mg/kg/injection, schedule: Q01DX009 (ip), vehicle: gum acacia 98 % of control | [8] 103 % of control | dose: 200.0 mg/kg/injection, schedule: Q01DX009 (ip), vehicle: gum acacia 95 % of control | [10] 105 % of control | dose: 400.0 mg/kg/injection, schedule: Q01DX009 (ip), vehicle: gum acacia 90 % of control | [12] 92 % of control

c1ccc(-c2cccc([Si](c3ccccc3)(c3ccccc3)c3cccc(-c4ccccc4)c3)c2)cc1
inactive: [13] 92 % of control | [14] 88 % of control | [15] 97 % of control
